According to patent publication US20140271734A1, “BILE ACID RECYCLING INHIBITORS FOR TREATMENT OF BARRETT'S ESOPHAGUS AND GASTROESOPHAGEAL REFLUX DISEASE” (LUMENA PHARMACEUTICALS, INC., priority 2013, published 2014):
Marks after values point to notes of the source that are not given here.

What was measured:
fecal bile acid (FBA) = assay: Fecal bile acids in hamsters, LUM001 for 28 days; type: in vivo, golden Syrian hamsters; details: for Weight-Adjusted Fecal Total Bile Acids Excretion: n=10
Description: Male golden Syrian hamsters (126-147 gm) were obtained from Charles Rivers Laboratories and were single housed in a constant temperature environment with alternating 12-hour light and dark cycles. Hamsters were fed Teklad 7001 rodent meal chow at libitum for two weeks before the experimental studies began and switched to Teklad 7001 rodent meal chow supplemented with 0.24% cholesterol on day one of the 28-day experiment. LUM001 was dissolved in an aqueous solution of 0.2% (w/v) Tween 80 and administered Q.D. by intragastric gavage between 9 a.m. and 10 a.m. each morning using a syringe fitted with a flexible feeding tube. Blood samples were collected after 14- and 28-day treatment periods by orbital sinus and cardiac puncture, respectively. Hamsters were anesthetized but not fasted prior to blood collections. Fecal samples were collected during a 48-hour period at the end of days 14 and 28 (i.e., days 13-14 and 27-28, respectively).
Fecal samples were collected to determine the fecal bile acid (FBA) concentration for each animal. The separate collections from each hamster were weighed and homogenized with distilled water with a Polytron tissue processor (Brinkman Instruments) to generate a homogeneous slurry. Fecal homogenate (1.4 grams) was extracted with 2.6 mL of a solution containing tertiary butanol:distilled water in the ratio of 2:0.6 [final concentration of 50% (v/v) tertiary butanol] for 45 minutes in a 37° C. water bath and subjected to centrifugation for 13 minutes at 2000×g. The concentration of bile acids (mmolesgram homogenate) was determined using a 96-well enzymatic assay system (6, 7). Aliquots of the fecal extracts (20 μl) were added to two sets of triplicate wells in a 96-well assay plate. A standardized sodium taurocholate solution and a standardized fecal extract solution (previously made from pooled samples and characterized for its bile acid concentration) were also analyzed for assay quality control. Aliquots of 90 mM sodium taurocholate ([…]), were serially diluted to generate a standard curve containing 30-540 nmoles/well. A […] aliquot of reaction mixture containing 1M hydrazine hydrate, 0.1 M pyrophosphate and 0.46 mg/ml NAD was added to each well. Subsequently, a […] aliquot of either 3a-hydroxysteroid dehydrogenase enzyme (HSD; 0.8 units/ml) or assay buffer (0.1 M sodium pyrophosphate) was then added to one each of the two sets of triplicates. Following 60 minutes of incubation at room temperature, the optical density at 340 nm was measured and the mean of each set of triplicate samples was calculated. The difference in optical density±HSD enzyme was used to determine the bile acid concentration (mM) of each sample based on the sodium taurocholate standard curve. The bile acid concentration of the extract (mmolesgram homogenate), the total weight of the fecal homogenate (grams) and the body weight of the hamsters (g) were used to calculate the corresponding FBA concentration in mmoles/day/kg body weight for each animal. All reagents used for the assay were obtained from Sigma Chemical Co., St. Louis, Mo. (HSD—catalog # H-1506; NAD—catalog # N1636; sodium taurocholate—catalog # T-4009).

plasma bile acid = assay: Plasma bile acid concentrations in ZDF rats; type: in vivo; details: SC-435 1, 10 or 30 mg/kg; LUM002 0.3, 1, 3, 10 or 30 mg/kg; oral gavage twice a day, end of second week, n=4
Description: Male Zucker diabetic fatty rats (ZDF/GmiCrl-fa/fa) were purchased from Charles River (Raleigh, N.C.) and housed under controlled conditions (12:12 light-dark cycle, 24° C. and 50% relative humidity) with free access to rodent food (Purina 5008, Harlan Teklad, Indianapolis, Ind.). All rats arrived at seven weeks of age (±3 days). After a one-week acclimation period, rats were anesthetized with isoflurane (Abbott Laboratories, IL) and tail-vein blood samples were collected at 9 am without fasting. Blood glucose levels were measured using a glucometer (Bayer, Leverkusen, Germany). In order to ensure balanced treatment groups, ZDF rats were assigned to six treatment groups based upon baseline glucose: vehicle (0.5% HPMC, 0.1% Tween80) and five doses of 264W94 (0.001, 0.01, 0.1, 1, 10 mg/kg). All treatments were given via oral gavage twice a day and animals were followed for two weeks with blood samples collected from tail vein at the end of each week at 9 am without fasting. Fecal samples were collected for 24 hours during the second week of treatment.
Non-esterified fatty acids (NEFA), bile acids, and bile acids in fecal extraction were measured using the Olympus AU640 clinical chemistry analyzer (Beckman Coulter, Irving, Tex.).
Male ZDF rats (n=4) were administered vehicle, SC-435 (1, 10 or 30 mg/kg) or LUM002 (0.3, 1, 3, 10 or 30 mg/kg) by oral gavage twice a day for 2 weeks. Plasma bile acid levels were determined at the end of the second week. […] Data are expressed as mean values±SEM.

[1] = Pharmacokinetics of LUM002 following single administration to rats; type: in vivo, Sprague Dawley Rat; details: for F: PO 20 mg/kg free acid, topmost estimate assuming 1 ng/mL over 24 h and dose-linear exposure
Description: To each rat either a single oral (PO; 20 mg/kg free acid) or a single intravenous (IV; 2 mg/kg free acid) dose of [^14Cl]LUM002 was administered. For PO and IV administration, the test substance was prepared with the adequate amount of water to reach a solution with a concentration of approximately 4 mg/g (PO) and 1 mg/g (IV). Oral administration was a gavage using a stomach tube and IV administration was a bolus injection into the tail vein. Exact doses administered to animals were calculated according to syringe weights.
The doses of radioactivity actually administered were determined by using standards prior to and after treatment of the animals. Blood—Animals were anaesthetized (Isoflurane) for blood sampling (3 animals/time point) and then euthanized by […]. Blood samples (maximal volume from each animal approx. 8 mL) were withdrawn from the abdominal aorta into containers containing a small amount of lithium heparin. and samples were centrifuged for 2 minutes at 1540 g. Aliquots (100 μL) of blood were used for hematocrit determination. Animals for the control groups (male and/or female) were used as predose animals for sampling of untreated biological samples (blood and plasma or liver, myocardium, kidneys only from male control animals). Plasma—To obtain plasma, blood samples were centrifuged for 10 minutes and stored cooled before final division.
Bioanalytical analysis—50 μL of plasma samples were placed into an 1.5 mL reaction tube. 5 μL methanol was added to each sample. For protein precipitation, 100 μL of the internal standard working solution (100 ng/mL of benzyl-13C6-LUM002 in acetonitrile) and 50 μL acetonitrile were added. In case of double blank samples, pure acetonitrile was added. Tubes were sealed and mixed thoroughly for 10 seconds. The tubes were centrifuged for 5 minutes at ≧3000 g. 50 μL of the clear supernatant was transferred into an autoinjector vial and were diluted with 50 μL deionized water. Analysis of samples was performed by using LC-MSMS (injection volume 50-75 μL) with a lower limit of quantification in the assay of 1 ng/mL for LUM002.

[2] = M, IV bolus injection 2 mg/kg free acid

Row | Compound | Weight-Adjusted Fecal Total Bile Acids Excretion, % change from vehicle group (fecal bile acid (FBA); 5 mg/kg/day) | Weight-Adjusted Fecal Total Bile Acids Excretion (fecal bile acid (FBA); 5 mg/kg/day) [µmol/day/kg] | Weight-Adjusted Fecal Total Bile Acids Excretion, % change from vehicle group (fecal bile acid (FBA); 15 mg/kg/day) | Weight-Adjusted Fecal Total Bile Acids Excretion (fecal bile acid (FBA); 15 mg/kg/day) [µmol/day/kg] | Weight-Adjusted Fecal Total Bile Acids Excretion, % change from vehicle group (fecal bile acid (FBA); 50 mg/kg/day) | Weight-Adjusted Fecal Total Bile Acids Excretion (fecal bile acid (FBA); 50 mg/kg/day) [µmol/day/kg] | Plasma bile acid levels (plasma bile acid) | F ([1]; F) | Cmax [1, 2] [ng/mL] | Vss [1, 2] [L/kg] | t1/2 [1, 2] [h] | Tmax ([1]; M, IV bolus injection 2 mg/kg free acid, extrapolated to t = 0) | F ([1]; M) | LUM002 dose systemically absorbed ([1]; rats, single PO 20 mg/kg vs IV 2 mg/kg free acid)
1 | CCCCC1(CCCC)CS(=O)(=O)c2ccc(N(C)C)cc2[C@@H](c2ccc(OCc3ccc(C[N+]45CCN(CC4)CC5)cc3)cc2)[C@H]1O [LUM001] | (+233) % | 60 | (+267) % | 66 | (+422) % | 94 |  |  |  |  |  |  |  | 
2 | CCCC[C@]1(CC)CS(=O)(=O)c2ccc(N(C)C)cc2[C@@H](c2cccc(NC(=O)N[C@@H]3O[C@H](COS(=O)(=O)[O-])[C@@H](O)[C@H](OCc4ccccc4)[C@H]3O)c2)[C@H]1O.CCO.O.[K+] [LUM002, potassium((2R,3R,4S,5R,6R)-4-benzyloxy-6-{3-[3-((3S,4R,5R)-3-butyl-7-dimethylamino-3-ethyl-4-hydroxy-1,1-dioxo-2,3,4,5-tetrahydro-1H-benzo[b]thiepin-5-yl)-phenyl]-ureido}-3,5-dihydroxy-tetrahydro-pyran-2-ylmethyl)sulphate ethanolate, hydrate] |  |  |  |  |  |  | decreased for all doses | <1.3^e % | 1036 | 3.890 | 10.7 | 0^c h | <1.3^e % | Less than 2%
